Laboratory results: BigSolDB 2.1

CC(=O)Nc1ccc(C(=O)O)cc1
Settings | solubility (mole fraction)
in 1,4-dioxane, 288.15 K | 0.00281
in 1,4-dioxane, 293.15 K | 0.00326
in 1,4-dioxane, 298.15 K | 0.00345
in 1,4-dioxane, 303.15 K | 0.00394
in 1,4-dioxane, 308.15 K | 0.00446
in 1,4-dioxane, 313.15 K | 0.00491
in 1,4-dioxane, 318.15 K | 0.00577
in 1,4-dioxane, 323.15 K | 0.00639
in 1,4-dioxane, 328.15 K | 0.00698
in acetic acid, 293.15 K | 0.00404
in acetic acid, 298.15 K | 0.00486
in acetic acid, 303.15 K | 0.00554
in acetic acid, 308.15 K | 0.00625
in acetic acid, 313.15 K | 0.007
in acetic acid, 318.15 K | 0.00782
in acetic acid, 323.15 K | 0.00894
in acetic acid, 328.15 K | 0.00963
in acetic acid, 333.15 K | 0.0111
in acetone, 283.15 K | 0.00302
in acetone, 288.15 K | 0.00338
in acetone, 293.15 K | 0.00384
in acetone, 298.15 K | 0.00454
in acetone, 303.15 K | 0.00538
in acetone, 308.15 K | 0.00635
in acetone, 313.15 K | 0.00709
in acetone, 318.15 K | 0.00804
in acetone, 323.15 K | 0.00913
in acetonitrile, 283.15 K | 0.000293
in acetonitrile, 288.15 K | 0.000405
in acetonitrile, 293.15 K | 0.000433
in acetonitrile, 298.15 K | 0.000515
in acetonitrile, 303.15 K | 0.000653
in acetonitrile, 308.15 K | 0.000803
in acetonitrile, 313.15 K | 0.000943
in acetonitrile, 318.15 K | 0.00107
in acetonitrile, 323.15 K | 0.00132
in ethanol, 283.15 K | 0.00586
in ethanol, 288.15 K | 0.00674
in ethanol, 293.15 K | 0.0075
in ethanol, 298.15 K | 0.00834
in ethanol, 303.15 K | 0.00921
in ethanol, 308.15 K | 0.0101
in ethanol, 313.15 K | 0.0114
in ethanol, 318.15 K | 0.0126
in ethanol, 323.15 K | 0.014
in isobutanol, 283.15 K | 0.00351
in isobutanol, 288.15 K | 0.00456
in isobutanol, 293.15 K | 0.00519
in isobutanol, 298.15 K | 0.00601
in isobutanol, 303.15 K | 0.00696
in isobutanol, 308.15 K | 0.00822
in isobutanol, 313.15 K | 0.00912
in isobutanol, 318.15 K | 0.0103
in isobutanol, 323.15 K | 0.0113
in isopropanol, 283.15 K | 0.00546
in isopropanol, 288.15 K | 0.00663
in isopropanol, 293.15 K | 0.00713
in isopropanol, 298.15 K | 0.00796
in isopropanol, 303.15 K | 0.009
in isopropanol, 308.15 K | 0.00986
in isopropanol, 313.15 K | 0.011
in isopropanol, 318.15 K | 0.012
in isopropanol, 323.15 K | 0.0137
in methanol, 283.15 K | 0.006
in methanol, 288.15 K | 0.00663
in methanol, 293.15 K | 0.00738
in methanol, 298.15 K | 0.00839
in methanol, 303.15 K | 0.00941
in methanol, 308.15 K | 0.0103
in methanol, 313.15 K | 0.0115
in methanol, 318.15 K | 0.0126
in methanol, 323.15 K | 0.0141
in n-butanol, 283.15 K | 0.00486
in n-butanol, 288.15 K | 0.00552
in n-butanol, 293.15 K | 0.00599
in n-butanol, 298.15 K | 0.00722
in n-butanol, 303.15 K | 0.00812
in n-butanol, 308.15 K | 0.00974
in n-butanol, 313.15 K | 0.0108
in n-butanol, 318.15 K | 0.0122
in n-butanol, 323.15 K | 0.0136
in n-pentanol, 283.15 K | 0.00507
in n-pentanol, 288.15 K | 0.00554
in n-pentanol, 293.15 K | 0.00607
in n-pentanol, 298.15 K | 0.00659
in n-pentanol, 303.15 K | 0.00741
in n-pentanol, 308.15 K | 0.00844
in n-pentanol, 313.15 K | 0.00938
in n-pentanol, 318.15 K | 0.0115
in n-pentanol, 323.15 K | 0.0138
in n-propanol, 283.15 K | 0.0048
in n-propanol, 288.15 K | 0.00548
in n-propanol, 293.15 K | 0.00608
in n-propanol, 298.15 K | 0.007
in n-propanol, 303.15 K | 0.00792
in n-propanol, 308.15 K | 0.00883
in n-propanol, 313.15 K | 0.00986
in n-propanol, 318.15 K | 0.0113
in n-propanol, 323.15 K | 0.0127
in sec-butanol, 283.15 K | 0.00515
in sec-butanol, 288.15 K | 0.00602
in sec-butanol, 293.15 K | 0.00666
in sec-butanol, 298.15 K | 0.00796
in sec-butanol, 303.15 K | 0.00936
in sec-butanol, 308.15 K | 0.0107
in sec-butanol, 313.15 K | 0.0122
in sec-butanol, 318.15 K | 0.0136
in sec-butanol, 323.15 K | 0.015
